Blank lines part the entries; values can stand above or below the molecule they belong to.
Tests used:
[1] = tested on: Nerve cells of the cerebral cortex; experiment: Pharmacological test 1: neurite sprouting (NS) of cultured fetal rat cerebral cortex nerve cells, phase contrast microscopy versus control; assay type: cell-based; parameters: key: ++: extremely strong in comparison with the control; +: strong in comparison with the control; ±: same as the control; -: inferior to the control; details: 10 days after initiation of culture
Text: Nerve cells of the cerebral cortex were removed aseptically from a fetal rat (17 days-old) and cultured according to a Asou's method [Asou, H. Brain Res., 332; pages 355-357 (1985)]. After the meninx, blood vessel, etc. were removed from the cerebral hemisphere, they were put through a stainless steel mesh (pore size: 140μm). Then, the isolated cells were floated on a culture medium (Eagle's basal medium containing 10% fetal bovine serum and glucose of 1 g/l) and 1.5×10^6 cells were respectively seeded on a dish (diameter: 35 mm) coated with poly-L-lysine to initiate the culture (37° C., 3% CO2). After 24 hours, the culture medium was replaced by a culture medium containing a test compound and cultured for additional 9 days.
10 Days after initiation of the culture, neurite sprouting (NS) was evaluated under phase contrast microscopy by comparing with the control group.

[2] = tested on: mouse dorsal root ganglion cells; experiment: Pharmacological Test 2: neurite outgrowth in primary culture of mouse dorsal root ganglion cells; assay type: cell-based, mouse (C57BL/6); parameters: key: +: positive; ±: false positive; -: negative; details: 7 days culture
Experimental: (The measurement of neurite outgrowth in primary culture of mouse dorsal root ganglion cells)
Preparation of cells was conducted according to a method of Horie et al. [H. Horie., FEBS, 296, 23 (1990)]. That is, C57BL/6 male mice aged 10 to 15 weeks were used. They were bleeded to death under ether anesthetization and the backbone from cervical vertebra to sacral vertebra was removed. The capsule of dorsal root ganglion of which ventral root and dorsal root had been cut was stripped in a Ham F12 medium (Flow laboratories) and then ganglia were treated with 0.25% collagenase (Worthington Biochemical Corporation) at 37° C. for 90 minutes. The medium was replaced by a Hank's physiological buffer solution containing no calcium and magnesium and cells were treated with 0.25% trypsin (Flow Laboratories) at room temperature for 20 minutes. A trypsin inhibitor (Sigma, 100 μg/ml) was added to terminate the enzyme reaction and trituration was conducted 20 times using a tapered Pasteur pipette. The medium was replaced again by the Ham F12 medium and cells were put through a nylon mesh (150 μm) to remove a cell mass which had not been separated. Cells were suspended in the Ham F12 medium containing a N1 additive [Bottenstein, J. E., Exp. Cell. Res., 125, 183 (1980)] (kanamycin of 60 μg/ml added).
A poly-1-lysine-coating cell disc as a culture medium which had been subjected to 10 μg/ml laminin (Koken Cell Gen) coating treatment at 37° C. for 3 hours was placed on a 24 well dish and nerve cells (5000 to 10000 cells/dish) were seeded. The test compound (concentration: 0.01 mol/l) was dissolved in dimethyl sulfoxide and diluted with a phosphate buffer solution to adjust to a final concentration, and then added to a culture solution. Cells were cultured in 5% CO2 -95% air phase at 37° C. for 7 days.
For the measurement of neurite outgrowth, the cell disc was washed with a phosphate buffer solution 7 days after initiation of the culture and immobilized with 4% paraformaldehyde at 4° C. for 24 hours, and then immune staining was conducted with Vecstatin ABC kit (Vector) using a neurofilament antibody (200 kD, manufactured by Boehringer Mannheim GmbH). The periphery of the cell disc was restrictively observed under microscopy, and the amount of neurofilament (whole length per well) was evaluated by comparing with the control well according to the following criteria: positive (+), false positive (±) and negative (-).

[3] = tested on: hyperoxidation reaction of lipid (microsome fraction); experiment: Pharmacological test 3: antioxidation action, hyperoxidation reaction of lipid due to ascorbic acid induction in liver microsome fraction (TBA value); assay type: biochemical, Wister rat; details: 37° C., 15 minutes; 200 μM ascorbic acid, 20 μM ferrous sulfate; read-out: IC50 (antioxidation, 50% inhibition concentration)
Experimental: (The measurement of antioxidation action)
The antioxidation action was measured using the hyperoxidation reaction of lipid due to ascorbic acid induction [Shimada, O. and Yasuda, H. BBA489, 163-172 (1977)].
Microsome fraction was obtained from a lever of Wister rat by a Kato's method [J. Biochem., 59, 574 (1966)]. This fraction was added to a 60 mM potassium phosphate buffer solution (containing 45 mM potassium chloride, 200 μM ascorbic acid and 20 μM ferrous sulfate) in an amount of 1 mg/ml and the test compound (0.1% dimethyl sulfoxide) was added, and the mixture was incubated at 37° C. for 15 minutes. The same amount of 10% trichloroacetic acid was added and the resultant was centrifuged. A portion of the supernatant was collected and the amount of malondialdehyde due to thiobarbituric acid (TBA value) was measured [Klaassen, C. D. and Plaa, G. L. Biochem. Pharmacol., 18: 2019 (1969)]. The inhibition ratio was calculated by the following formula:
Inhibition ratio={1-(TBA value of specimen)/(TBA value of […]

C-GMP-PDE (type V) = target: T1, C-GMP-PDE (type V) (Homo sapiens, UniProt O76074); experiment: Pharmacological test 4: C-GMP-PDE (type V) inhibition action; assay type: biochemical; details: FI fraction from human blood platelet
T1 construct: from tissue; host or cells: human blood platelets (healthy adult), DEAE-cellulose fraction FI
Experimental: (C-GMP-PDE (type V) inhibition action)
The separation and purification of PDE from a human blood platelet was conducted according to a method of Hidaka et al. [Hidaka, H. and Asano, I., Biochem. Biophys. Acta 429, 485-497 (1976)]. That is, a blood platelet derived from a healthy adult was washed with water, floated with a Tris buffer solution and centrifuged. Then, the supernatant thereof was applied to DEAE-cellulose and separated into three fractions, FI, FII and FIII due to concentration gradient of sodium acetate. By using FI having high affinity to C-GMP, the inhibition action of the test compound was examined. The influence of the drug on PDE was represented by the inhibition ratio to PDE activity in the absence of the drug.

Compound: C=CCc1cc(C)c2c(c1O)C(=O)c1ccccc1-2 [Example 11]
neurite sprouting (NS) ([1]; Dose 10^-5 (mole)): +

Compound: C=CCc1cc2c(cc1O)C(=O)c1c-2ccc(CC=C)c1O [Example 14]
neurite sprouting (NS) ([1]; Dose 10^-7 (mole)): ++

Compound: C=CCc1cc2c(c(CC=C)c1O)C(=O)c1c(O)c(CC=C)cc(CC=C)c1-2 [Example 16]
neurite sprouting (NS) ([1]; Dose 10^-7 (mole)): +

Compound: C=CCc1c(O)ccc2c1C(=O)c1ccccc1-2 [Example 17]
neurite sprouting (NS) ([1]; Dose 10^-5 (mole)): ++
Neurite outgrowth action ([2]; Dose 10^-6 (mole)): +

Compound: C=CCc1cc2c(cc1O)C(=O)c1ccccc1-2 [Example 18]
neurite sprouting (NS) ([1]; Dose 10^-5 (mole)): ++
Neurite outgrowth action ([2]; Dose 10^-6 (mole)): +

Compound: C=CCc1cc2c(c(CC=C)c1O)C(=O)c1ccccc1-2 [Example 19]
neurite sprouting (NS) ([1]; Dose 10^-5 (mole)): ++
Neurite outgrowth action ([2]; Dose 10^-7 (mole)): +

Compound: O=C1c2ccccc2-c2cc(O)c(O)cc21 [Example 20, 2,3-dihydroxyfluorenone]
Neurite outgrowth action ([2]; Dose 10^-6 (mole)): +

IC50 [3]: 100 nM
IC50 (C-GMP-PDE (type V)): 14700 nM
Compound: C=CCc1c(O)c(O)c(CC=C)c2c1C(=O)c1ccccc1-2 [Example 21, 1,4-diallyl-2,3-dihydroxyfluorenone]
neurite sprouting (NS) ([1]; Dose 10^-7 (mole)): ++
Neurite outgrowth action ([2]; Dose 10^-7 (mole)): +

Compound: CCCc1c(O)c(O)c(CCC)c2c1C(=O)c1ccccc1-2 [Example 22, 1,4-di-n-propyl-2,3-dihydroxyfluorenone]
Neurite outgrowth action ([2]; Dose 10^-7 (mole)): +

Compound: O=C1c2cc(O)ccc2-c2c(O)cccc21 [Example 26]
neurite sprouting (NS) ([1]; Dose 10^-7 (mole)): +
Neurite outgrowth action ([2]; Dose 10^-7 (mole)): +

IC50 [3]: 1600 nM
IC50 (C-GMP-PDE (type V)): 8700 nM
Compound: C=CCc1ccc2c(c1O)-c1ccc(O)c(CC=C)c1C2=O [Example 27, 1,6-Diallyl-2,5-dihydroxyfluorenone]
neurite sprouting (NS) ([1]; Dose 10^-5 (mole)): +
Neurite outgrowth action ([2]; Dose 10^-7 (mole)): +

Compound: C=CCc1ccc(O)c2c1C(=O)c1c-2ccc(O)c1CC=C [Example 28]
neurite sprouting (NS) ([1]; Dose 10^-5 (mole)): ++

Compound: C=CCc1cc2c(cc1O)C(=O)c1ccc(CC=C)c(O)c1-2 [Example 29]
Neurite outgrowth action ([2]; Dose 10^-7 (mole)): +

Compound: C=CCc1cc2c(cc1O)C(=O)c1c(CC=C)ccc(O)c1-2 [Example 30]
Neurite outgrowth action ([2]; Dose 10^-7 (mole)): +

IC50 [3]: 200 nM
IC50 (C-GMP-PDE (type V)): 400 nM
Compound: C=CCc1cc2c(c(CC=C)c1O)C(=O)c1c(CC=C)cc(CC=C)c(O)c1-2 [Example 31]
neurite sprouting (NS) ([1]; Dose 10^-7 (mole)): +
Neurite outgrowth action ([2]; Dose 10^-7 (mole)): +

Compound: CCCc1cc2c(c(CCC)c1O)C(=O)c1c(CCC)cc(CCC)c(O)c1-2 [Example 32]
Neurite outgrowth action ([2]; Dose 3 × 10^-8 (mole)): +

Compound: C=CCc1cc(Cl)c2c(c1O)-c1cc(Cl)c(O)c(CC=C)c1C2=O [Example 33]
Neurite outgrowth action ([2]; Dose 10^-7 (mole)): +

Compound: C=CCc1cc(Cl)c(O)c2c1C(=O)c1c-2cc(Cl)c(O)c1CC=C [Example 34]
Neurite outgrowth action ([2]; Dose 10^-7 (mole)): +

Compound: C=CCc1cc2c(cc1O)C(=O)c1cccc(O)c1-2 [Example 35]
neurite sprouting (NS) ([1]; Dose 10^-7 (mole)): +

Compound: COc1cccc2c1-c1cc(C(C)C)c(O)cc1C2=O [Example 36]
Neurite outgrowth action ([2]; Dose 10^-6 (mole)): +

Compound: O=C1c2cc(O)ccc2-c2cc(O)ccc21 [Example 40]
neurite sprouting (NS) ([1]; Dose 10^-5 (mole)): ++
Neurite outgrowth action ([2]; Dose 10^-6 (mole)): +

Compound: C=CCc1c(O)ccc2c1C(=O)c1ccc(O)c(CC=C)c1-2 [Example 41]
Neurite outgrowth action ([2]; Dose 10^-7 (mole)): +

Compound: C=CCc1cc2c(cc1O)-c1cc(CC=C)c(O)cc1C2=O [Example 44]
Neurite outgrowth action ([2]; Dose 10^-7 (mole)): +

Compound: C=CCc1cc2c(c(CC=C)c1O)C(=O)c1cc(CC=C)c(O)c(CC=C)c1-2 [Example 45]
neurite sprouting (NS) ([1]; Dose 10^-7 (mole)): +
Neurite outgrowth action ([2]; Dose 10^-7 (mole)): +

Compound: C=CCc1c(O)ccc2c1C(=O)c1c-2ccc(O)c1CC=C [Example 48]
neurite sprouting (NS) ([1]; Dose 10^-6 (mole)): +
Neurite outgrowth action ([2]; Dose 10^-7 (mole)): +

Compound: C=CCc1cc2c(c(CC=C)c1O)C(=O)c1c-2cc(CC=C)c(O)c1CC=C [Example 50]
Neurite outgrowth action ([2]; Dose 10^-7 (mole)): +

Compound: CCCc1cc2c(c(CCC)c1O)C(=O)c1c-2cc(CCC)c(O)c1CCC [Example 53]
Neurite outgrowth action ([2]; Dose 10^-7 (mole)): +

Compound: CCCc1cc2c(c(Cl)c1O)C(=O)c1c-2cc(Cl)c(O)c1CCC [Example 54, 3,8-dichloro-1,6-di-n-propyl-2,7-dihydroxyfluorenone]
Neurite outgrowth action ([2]; Dose 10^-7 (mole)): +

Compound: C=CCc1cc2c(c(CC=C)c1O)-c1ccccc1C2=O [Example 60]
neurite sprouting (NS) ([1]; Dose 10^-7 (mole)): +
Neurite outgrowth action ([2]; Dose 10^-6 (mole)): +

Compound: C=CCc1ccc(O)c2c1C(=O)c1ccccc1-2 [Example 61]
neurite sprouting (NS) ([1]; Dose 10^-5 (mole)): ++

Compound: C=CCc1ccc2c(c1O)-c1ccccc1C2=O [Example 62]
neurite sprouting (NS) ([1]; Dose 10^-6 (mole)): ++
Neurite outgrowth action ([2]; Dose 10^-6 (mole)): +

Compound: CSc1ccc(O)c2c1C(=O)c1ccccc1-2 [Example 63]
Neurite outgrowth action ([2]; Dose 10^-6 (mole)): +

Compound: C=CCc1cc(SC)c2c(c1O)-c1ccccc1C2=O [Example 64]
Neurite outgrowth action ([2]; Dose 10^-6 (mole)): +

Compound: C=CCc1cc2c(cc1OC(C)=O)C(=O)c1c-2ccc(OC(C)=O)c1CC=C [Example 106, 1,6-diallyl-2,7-diacetoxyfluorenone]
Neurite outgrowth action ([2]; Dose 10^-7 (mole)): +

Compound: Cc1cc2c(c(C)c1O)C(=O)c1ccc(C)c(O)c1-2 [Example 118, 1,3,6-trimethyl-2,5-dihydroxyfluorenone]
Neurite outgrowth action ([2]; Dose 3 × 10^-7 (mole)): +

Compound: Cc1cc2c(c(C)c1O)C(=O)c1ccc(CNc3ncccn3)c(O)c1-2 [Example 123]
Neurite outgrowth action ([2]; Dose 10^-7 (mole)): +

Compound: CCCc1ccc2c(c1O)-c1cc(CNc3ncccn3)c(O)c(CCC)c1C2=O [Example 127]
Neurite outgrowth action ([2]; Dose 10^-7 (mole)): +

Compound: CCCc1ccc2c(c1O)-c1cc(CNC(CC(C)C)C(=O)OC)c(O)c(CCC)c1C2=O (stereo not drawn) [Example 131]
Neurite outgrowth action ([2]; Dose 10^-7 (mole)): +

Compound: CCCc1ccc2c(c1O)-c1cc(CN3CCC[C@H]3C(=O)OC)c(O)c(CCC)c1C2=O [Example 132]
Neurite outgrowth action ([2]; Dose 10^-7 (mole)): +

Compound: CCCc1cc2c(c(CCC)c1OC(C)=O)C(=O)c1c(CCC)cc(CCC)c(OC(C)=O)c1-2 [Example 134]
Neurite outgrowth action ([2]; Dose 3 × 10^-8 (mole)): +

Compound: Cc1cc2c(c(C)c1O)C(=O)c1ccc(CSc3ccccc3)c(O)c1-2 [Example 136]
Neurite outgrowth action ([2]; Dose 3 × 10^-7 (mole)): +

Compound: COc1ccc(SCc2ccc3c(c2O)-c2cc(C)c(O)c(C)c2C3=O)cc1 [Example 141]
Neurite outgrowth action ([2]; Dose 3 × 10^-8 (mole)): +

Compound: Cc1cc2c(c(C)c1O)C(=O)c1ccc(CSC3CCCCC3)c(O)c1-2 [Example 142]
Neurite outgrowth action ([2]; Dose 3 × 10^-8 (mole)): +

Compound: CCCc1cc2c(c(CC(C)OCCOCCO)c1O)C(=O)c1c(CCC)cc(CCC)c(O)c1-2 (stereo not drawn) [Example 143]
Neurite outgrowth action ([2]; Dose 10^-7 (mole)): +

Compound: Cc1cc2c(c(C)c1O)C(=O)c1ccc(CC#N)c(O)c1-2 [Example 144]
Neurite outgrowth action ([2]; Dose 10^-7 (mole)): +

Reference: patent US5942641A, “Fluorenone derivatives, process for preparing the same and central or peripheral nerve degeneration repair and protective agent” (Otsuka Pharmaceutical Co., Ltd., priority 1993, dated 1999)
